Target: GABAB receptor (Homo sapiens, UniProt Q9UBS5)
Experiment: GABAB receptor agonist or partial agonist activity by binding, electrophysiology, cAMP and/or Ca2+ assay methods (Examples 83-86)
Assay type: cell-based
Procedure: An assay using rat cerebral cortex membranes was used to determine the affinity of GABAB receptor ligands for the GABAB receptor.
An assay buffer of 50 mM Tris pH 7.4 was prepared with 100 μM of isoguvacine, to block GABAA interactions. The assay buffer with isoguvacine was used for dilution of membranes, compounds, and radiolabel.
Rat cerebral cortex membranes were diluted in assay buffer at 1 mg/mL and aliquoted into a 96-well plate at 900 μL/well. Buffer or test compound were added at 20-times final concentration in the buffer at 50 μL/well. Membranes and test compounds or buffer were incubated for 10 min. at room temperature. Radiolableled [S—(R*,R*)]-[3-[[1-(3,4-dichlorophenyl)ethyl]amino]-2-hydroxypropyl](cyclohexylmethyl) phosphinic acid (CGP54626) was then added at 50 μL/well in the buffer at 1-10 nM concentration in 50 μl. […] The assay mixture was filtered using Brandell filtration apparatus and GFB filters, washed twice with 3 mL of 4° C., 50 mM Tris pH 7.4, buffer without isoguvacine. The filters were then dried at room temperature and the dried filters punched out and placed in individual vials. Three (3) mL of scintillation fluid was added to each vial and the radiolabel counted on the scintillation counter. The inverse amount of radiolabel was indicative of binding of a test compound to the GABAB receptor.
The following procedure was used to determine the level of intracellular cAMP. Recombinant HEK cells expressing the GABAB R1a2 receptor were used in the experiments. cAMP levels were measured using a cAMP XS^+ HitHunter™ Chemiluminescence Assay Kit (90-0075-02, GE Healthcare Biosciences Corp.). Cells were seeded overnight at 5,000 cells per well, in black, clear bottom 96-well plates. The following morning, cells were washed twice with 100 μL PBS per well. Forskolin was weighed out and dissolved in DMSO to a final concentration 100 mM. One-hundred (100) μM forskolin solutions were prepared in PBS with and without test compound at 1-times final concentration. Thirty (30) μL of the test solutions were added to the wells and incubated for 1 h at room temperature. The cAMP concentration was determined according to the protocol described in the cAMP assay kit, maintaining the plate at room temperature and in the dark. […] Each well was read for 6 seconds. The untransformed data was then analyzed.
The following procedure was used to determine the GABAB receptor agonist activity of a compound as reflected by activation of Ca^2+ signaling. HEK TREx cells expressing GABABR1a2 under tetracycline induction control, and Gqi chimeric protein (expressed constitutively), allowing GABABR coupling through the Ca^2+ signaling pathway were used in the experiments.
Cells were seeded in media containing tetracycline overnight at 100,000 cells/well, in black, clear-bottom, 96-well plates. The following morning, cells were washed twice with 100 μL HBSS buffer per well. Fluorescent Ca^2+ indicator dye was prepared using the materials and procedure described in the F362056 Fluo-4 NW Calcium Assay Kit (Invitrogen, Carlsbad, Calif.). Ten (10) mL of kit buffer and 100 μl of kit Probenecid were added to individual kit dye vials, and rolled back and forth several times to dissolve the dye. Cells were then loaded into the dye solution at 50 μL per well. The cells and dye were incubated for 30 min at 37° C., and then incubated for an additional 30 min at room temperature in the dark. Test compounds are dissolved in HBSS buffer at twice final concentration. Duplicate wells were used for each unique condition. Solution containing the test compound was added to the wells using a FLEXStation II (Molecular Devices, Sunnyvale, Calif.). Using the instrument in kinetic mode in which each well was read every 2 sec over a total collection time of 50 sec fluorescence was measured using an excitation wavelength 494 nm and a detection wavelength of 516 nm. A normalized fluorescence value for each well was calculated using the following procedure.

Sequence of GABAB receptor (Q9UBS5 20-961): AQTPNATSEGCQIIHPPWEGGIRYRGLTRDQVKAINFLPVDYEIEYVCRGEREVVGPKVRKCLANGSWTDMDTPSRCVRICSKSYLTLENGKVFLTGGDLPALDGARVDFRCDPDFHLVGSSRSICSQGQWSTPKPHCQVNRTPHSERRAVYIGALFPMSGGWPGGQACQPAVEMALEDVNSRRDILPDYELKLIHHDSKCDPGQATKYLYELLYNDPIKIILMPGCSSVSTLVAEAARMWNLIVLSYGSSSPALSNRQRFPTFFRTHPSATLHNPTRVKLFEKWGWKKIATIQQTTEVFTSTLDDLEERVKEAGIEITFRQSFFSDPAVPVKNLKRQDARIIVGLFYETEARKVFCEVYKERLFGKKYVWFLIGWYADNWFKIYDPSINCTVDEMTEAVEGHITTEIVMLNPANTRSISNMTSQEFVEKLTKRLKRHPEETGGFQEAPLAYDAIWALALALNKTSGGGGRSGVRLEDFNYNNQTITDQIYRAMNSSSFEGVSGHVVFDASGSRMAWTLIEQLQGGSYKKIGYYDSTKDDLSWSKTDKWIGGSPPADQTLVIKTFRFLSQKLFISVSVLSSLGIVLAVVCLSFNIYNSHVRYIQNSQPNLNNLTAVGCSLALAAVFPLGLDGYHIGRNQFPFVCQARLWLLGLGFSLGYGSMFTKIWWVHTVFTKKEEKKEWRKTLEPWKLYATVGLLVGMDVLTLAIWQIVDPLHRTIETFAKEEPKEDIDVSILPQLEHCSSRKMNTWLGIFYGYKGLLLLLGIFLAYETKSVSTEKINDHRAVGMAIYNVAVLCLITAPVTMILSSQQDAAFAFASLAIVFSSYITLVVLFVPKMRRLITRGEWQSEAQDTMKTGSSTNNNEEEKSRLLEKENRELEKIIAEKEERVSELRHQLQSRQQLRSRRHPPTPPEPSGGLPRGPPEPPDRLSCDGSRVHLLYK
Sequence of GABAB receptor (O75899 42-941 partner): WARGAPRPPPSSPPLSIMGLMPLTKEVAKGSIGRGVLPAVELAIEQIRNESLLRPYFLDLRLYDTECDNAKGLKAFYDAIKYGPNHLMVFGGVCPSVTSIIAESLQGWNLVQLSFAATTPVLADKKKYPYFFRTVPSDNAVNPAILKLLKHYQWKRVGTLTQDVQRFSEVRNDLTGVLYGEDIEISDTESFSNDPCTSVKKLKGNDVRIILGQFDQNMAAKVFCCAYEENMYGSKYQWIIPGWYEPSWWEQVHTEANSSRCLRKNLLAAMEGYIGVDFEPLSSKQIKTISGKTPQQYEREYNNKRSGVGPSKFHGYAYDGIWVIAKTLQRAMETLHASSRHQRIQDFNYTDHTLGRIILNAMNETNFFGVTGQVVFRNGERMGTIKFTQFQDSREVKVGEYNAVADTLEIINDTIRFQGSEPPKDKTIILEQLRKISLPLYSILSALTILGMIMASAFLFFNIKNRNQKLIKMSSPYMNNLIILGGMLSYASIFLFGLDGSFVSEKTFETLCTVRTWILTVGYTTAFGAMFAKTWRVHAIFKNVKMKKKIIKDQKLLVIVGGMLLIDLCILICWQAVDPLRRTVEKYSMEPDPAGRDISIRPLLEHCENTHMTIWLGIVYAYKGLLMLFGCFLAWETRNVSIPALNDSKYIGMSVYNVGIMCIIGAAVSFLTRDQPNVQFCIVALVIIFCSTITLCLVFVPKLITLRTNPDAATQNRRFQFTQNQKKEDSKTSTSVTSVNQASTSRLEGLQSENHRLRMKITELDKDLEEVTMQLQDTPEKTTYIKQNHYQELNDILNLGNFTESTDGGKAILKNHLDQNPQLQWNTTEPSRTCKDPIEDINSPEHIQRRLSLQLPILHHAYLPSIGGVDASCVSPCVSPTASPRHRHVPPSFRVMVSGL

GABAB receptor agonist or partial agonist activity	SMILES
agonist or partial agonist activity	Cl.N#Cc1ccccc1COc1cc([C@H](CN)CC(=O)O)ccc1Cl [(3R)-4-amino-3-{4-chloro-3-[(2-cyanophenyl)methoxy]phenyl}butanoic acid hydrochloride]
agonist or partial agonist activity	N#Cc1cccc(C(=O)Nc2cc([C@H](CN)CC(=O)O)ccc2Cl)c1 [(3R)-4-amino-3-{4-chloro-3-[(3-cyanophenyl)carbonylamino]phenyl}butanoic acid]
agonist or partial agonist activity	Cl.N#Cc1cccc(COc2cc([C@H](CN)CC(=O)O)ccc2Cl)c1 [(3R)-4-amino-3-{4-chloro-3-[(3-cyanophenyl)methoxy]phenyl}butanoic acid hydrochloride]
agonist or partial agonist activity	Cl.NC[C@H](CC(=O)O)c1ccc(Cl)c(Cc2cccc([N+](=O)[O-])c2)c1 [(3R)-4-amino-3-{4-chloro-3-[(3-nitrophenyl)methyl]phenyl}butanoic acid hydrochloride]
agonist or partial agonist activity	Cl.N#Cc1ccc(COc2cc([C@H](CN)CC(=O)O)ccc2Cl)cc1 [(3R)-4-amino-3-{4-chloro-3-[(4-cyanophenyl)methoxy]phenyl}butanoic acid hydrochloride]
agonist or partial agonist activity	Cl.N#Cc1cccc(-c2cc([C@@H](CN)CC(=O)O)ccc2Cl)c1 [(3S)-4-amino-3-[4-chloro-3-(3-cyanophenyl)phenyl]butanoic acid hydrochloride]
agonist or partial agonist activity	NC[C@H](CC(=O)O)c1ccc(Cl)c(Oc2cccc(C(=O)O)c2)c1 [Example 22, 3-{5-[(1R)-2-Amino-1-(carboxymethyl)ethyl]-2-chlorophenoxy}benzoic acid]
agonist or partial agonist activity	Cl.NC[C@H](CC(=O)O)c1ccc(Cl)c(-c2cccc(CO)c2)c1 [Example 28, (3R)-4-Amino-3-{4-chloro-3-[3-(hydroxymethyl)phenyl]phenyl}butanoic acid hydrochloride]
agonist or partial agonist activity	Cl.NC[C@H](CC(=O)O)c1ccc(Cl)c(-c2cccc(O)c2)c1 [Example 34, (3R)-4-Amino-3-[4-chloro-3-(3-hydroxyphenyl)phenyl]butanoic acid hydrochloride]

More lines, now with the values behind:

SMILES	GABAB receptor agonist or partial agonist activity
Cl.NC[C@H](CC(=O)O)c1ccc(Cl)c(-c2ccc(CC(=O)O)cc2)c1 [(3R)-4-amino-3-{3-[4-(carboxymethyl)phenyl]-4-chlorophenyl}butanoic acid hydrochloride]	agonist or partial agonist activity
CN(C)c1cccc(-c2cc([C@H](CN)CC(=O)O)ccc2Cl)n1.Cl [(3R)-4-amino-3-{3-[6-(dimethylamino)(2-pyridyl)]-4-chlorophenyl}butanoic acid hydrochloride]	agonist or partial agonist activity
Cc1cc(C(=O)Nc2cc([C@H](CN)CC(=O)O)ccc2Cl)n(C)n1 [(3R)-4-amino-3-{3-[(1,3-dimethylpyrazol-5-yl)carbonylamino]-4-chlorophenyl}butanoic acid]	agonist or partial agonist activity
NC[C@H](CC(=O)O)c1ccc(Cl)c(-c2cncc(C(F)(F)F)c2)c1 [(3R)-4-amino-3-{4-chloro-3-[5-(trifluoromethyl)(3-pyridyl)]phenyl}butanoic acid]	agonist or partial agonist activity
Cl.NC[C@H](CC(=O)O)c1ccc(Cl)c(NCc2ccco2)c1 [(3R)-4-amino-3-{4-chloro-3-[(2-furylmethyl)amino]phenyl}butanoic acid hydrochloride]	agonist or partial agonist activity
NC[C@H](CC(=O)O)c1ccc(Cl)c(NCCc2ccccc2)c1 [(3R)-4-amino-3-{4-chloro-3-[(2-phenylethyl)amino]phenyl}butanoic acid]	agonist or partial agonist activity
Cl.NC[C@H](CC(=O)O)c1ccc(Cl)c(NS(=O)(=O)c2ccccn2)c1 [(3R)-4-amino-3-{4-chloro-3-[(2-pyridylsulfonyl)amino]phenyl}butanoic acid hydrochloride]	agonist or partial agonist activity
NC[C@H](CC(=O)O)c1ccc(Cl)c(NC(=O)c2cccc(F)c2)c1 [(3R)-4-amino-3-{4-chloro-3-[(3-fluorophenyl)carbonylamino]phenyl}butanoic acid]	agonist or partial agonist activity
NC[C@H](CC(=O)O)c1ccc(Cl)c(NCc2cccnc2)c1 [(3R)-4-amino-3-{4-chloro-3-[(3-pyridylmethyl)amino]phenyl}butanoic acid]	agonist or partial agonist activity
NC[C@H](CC(=O)O)c1ccc(Cl)c(NC(=O)c2ccc([N+](=O)[O-])cc2)c1 [(3R)-4-amino-3-{4-chloro-3-[(4-nitrophenyl)carbonylamino]phenyl}butanoic acid]	agonist or partial agonist activity
CN(Cc1ccccc1)c1cc([C@H](CN)CC(=O)O)ccc1Cl.Cl [(3R)-4-amino-3-{4-chloro-3-[methylbenzylamino]phenyl}butanoic acid hydrochloride]	agonist or partial agonist activity
Cl.NC[C@@H](CC(=O)O)c1ccc(Cl)c(-c2cccnc2)c1 [(3S)-4-amino-3-(4-chloro-3-(3-pyridyl)phenyl)butanoic acid hydrochloride]	agonist or partial agonist activity
Cl.NC[C@@H](CC(=O)O)c1ccc(Cl)c(NCc2ccncc2)c1 [(3S)-4-amino-3-{4-chloro-3-[(4-pyridylmethyl)amino]phenyl}butanoic acid hydrochloride]	agonist or partial agonist activity
Cl.NC[C@H](CC(=O)O)c1ccc(Cl)cc1-c1cccnc1 [Example 8, (3R)-4-Amino-3-[4-chloro-2-(3-pyridyl)phenyl]butanoic acid hydrochloride]	agonist or partial agonist activity
Cl.NC[C@H](CC(=O)O)c1ccc(Cl)cc1C(=O)c1ccccc1 [Example 11, (3R)-4-Amino-3-[4-chloro-2-(phenylcarbonyl)phenyl]butanoic acid hydrochloride]	agonist or partial agonist activity
NC[C@H](CC(=O)O)c1ccc(Cl)c(Nc2ccccc2C(=O)O)c1 [Example 13, 2-({5-[(1R)-2-Amino-1-(carboxymethyl)ethyl]-2-chlorophenyl}amino)benzoic acid]	agonist or partial agonist activity
Cl.NC[C@H](CC(=O)O)c1ccc(Cl)c(-c2ccc(C(=O)O)cc2)c1 [Example 24, 4-{5-[(1R)-2-Amino-1-(carboxymethyl)ethyl]-2-chlorophenyl}benzoic acid hydrochloride]	agonist or partial agonist activity
Cc1ncc(-c2cc([C@H](CN)CC(=O)O)ccc2Cl)cn1.Cl [Example 30, (3R)-4-Amino-3-[4-chloro-3-(2-methylpyrimidin-5-yl)phenyl]butanoic acid hydrochloride]	agonist or partial agonist activity
COc1cccc(-c2cc([C@H](CN)CC(=O)O)ccc2Cl)c1.Cl [Example 35, (3R)-4-Amino-3-[4-chloro-3-(3-methoxyphenyl)phenyl]butanoic acid hydrochloride]	agonist or partial agonist activity

Reference: patent publication US8344028B2, “Gamma-amino-butyric acid derivatives as GABAB receptor ligands” (XenoPort, Inc., priority 2009, dated 2013)
